# In patent US9623002B2, “Pharmaceutical compositions of Anisomelic acid and the use thereof” (priority 2012, dated 2017):
# Entries after “also recorded” stand apart in the source; their conditions may differ.
# How the values were obtained:
# SiHa cells [1] = assay: PE active caspase-3 apoptosis assay by FACS; type: cell-based
# Protocol: SiHa cells were treated with 0-50 μM AA or solvent control at 10 μM interval. […] Fourty eight hours later, the cells were collected and analyzed for apoptosis and/or necrosis. Activated caspase-3 in cells was labeled with phyco-erythrin-conjugated antibody according to manufacturer's protocol (PE Active Caspase-3 Apoptosis Kit; BD Pharmingen, San Diego, Calif.) and analyzed by FACSCalibur flow cytometer (FL-2, FSC, BD Pharmingen). SiHa cells were also tested with 40 μM AA and AA emulsion for 24 and 48 h. The cells were collected and analyzed for apoptosis adopting PE active caspase-3 assay by FACS.
# [2] = tested on: SiHa cells with p53 down-regulated by p53-shRNA; assay: RNA interference: p53-shRNA SiHa cells treated with AA; type: cell-based
# Protocol: (§1) Cells were synchronized by serum-starvation (1% serum) for 48 h and then cultured in medium containing 10% FCS for 24 h. After this, the cells were incubated with 0, 20 and 40 μM AA for 24. These doses were chosen since apoptosis induction was highest at 40 μM (the dose was limited to 40 μM in the following studies). The cells were collected and disrupted and the nuclei labelled for DNA content with PI by re-suspension in sodium citrate buffer [40 mM Na-citrate, 0.3% Triton X-100, 50 μg/ml PI (Sigma-Aldrich)]. After incubation at room temperature for 10 min, the samples were immediately analyzed by FACSCalibur flow cytometry.
# The pSUPER vector (SEQ ID NO: 1) (Oligoengine, Seattle, Wash., USA) for expression of human p53 targeted shRNA (5′[…] AGUCUU3′, Brummelkamp et al., 2002) was kindly provided by Dr. Pia Roos-Mattjus. The scramble (Scr) pSUPER vector (SEQ ID NO: 2) (5′GCG CGC TTT GTA GGA TTC G3′, Ostling et al., 2007) was transfected to control cells. Trypsinized SiHa cells were transfected with the shRNA expression plasmids by electroporation in Opti-MEM media (Gibco, Calif., USA). Twenty four hours post-transfection, the culture medium was changed and the cells were treated with AA or left untreated, after which the cells were cultured for another 24 h or 48 h. The efficiency of the shRNA expression vector was determined by Western blotting for p53 expression.
# Whole cell lysates were prepared by lysing the cells in Laemmli sample buffer (Laemmli, 1970) and boiling the samples for 10 min after which proteins were separated in 12.5-15% SDS-PAGE. Western blotting was performed using antibodies against poly (ADP-ribose) polymerase (clone C-2-10; Sigma-Aldrich), Bid, Bax, caspase 8, caspase 9, caspase 3, SAPK/JNK, Phospho SAPK/JNK (Thr183/Tyr185), cIAP2 (Enzo Lifesciences), Akt, Phospho Akt(Ser473) (Cell Signalling Technology, Davers, Mass., USA), p21, Bcl-xL (Santa Cruz Biotechnology, Inc, Santa Cruz, Calif.), β-actin (clone AC-40; Sigma-Aldrich) and p53 (clone DO-1; BD Pharmingen). […]
# Solubility = type: physicochemical
# MDA-MB-231 cells = assay: Apoptosis analysis in MDA-MB-231 cells; type: cell-based; settings: breast cancer MDA-MB-231 cells (p53−), 40 μM AA, 48 h
# Protocol: (§2) SiHa cells were treated with 0-50 μM AA or solvent control at 10 μM interval. […] Fourty eight hours later, the cells were collected and analyzed for apoptosis and/or necrosis. Activated caspase-3 in cells was labeled with phyco-erythrin-conjugated antibody according to manufacturer's protocol (PE Active Caspase-3 Apoptosis Kit; BD Pharmingen, San Diego, Calif.) and analyzed by FACSCalibur flow cytometer (FL-2, FSC, BD Pharmingen).
# (§3) HeLa, Caski, c33a, MCF7, MDA-MB-231 and MEF cells were treated with 0 and 40 μM AA. Forty eight hours later, the cells were collected and analyzed for apoptosis.
# MCF7 cells = assay: Apoptosis analysis in MCF7 cells; type: cell-based; settings: breast cancer MCF7 cells (p53+), 40 μM AA, 48 h
# Protocol: as §2, §3
# c33a cells [3] = assay: Apoptosis analysis in c33a cells; type: cell-based; settings: HPV negative c33a cells (p53−), 40 μM AA, 48 h
# Protocol: as §2, §3
# SiHa cells [4] = assay: MTT cytotoxicity assay; type: cell-based; settings: 50 μM AA, preliminary studies, unpublished data
# SiHa cells [5] = assay: Cell cycle analysis of synchronized cells (PI, flow cytometry); type: cell-based; settings: 24 h
# Protocol: as §1
# [6] = tested on: Mouse Embryonic Fibroblasts (MEF); assay: Cell death analysis in MEF cells; type: cell-based; settings: non-cancerous MEF cells, 40 μM AA
# Protocol: as §2, §3
# c33a cells [7] = assay: His-tag E6 plasmid transfection of c33a cells, Western blot and FACS; type: cell-based; settings: 70 μM AA
# Protocol: c33a cells were pelleted and resuspended in OPTIMEM (Gibco, Invitrogen Foundation, Washington D.C., USA) and electroporated with mock or His-tag E6 plasmid at 220 V and 975 μF. Twenty four hours post-transfection, the culture medium was changed and the cells were treated with AA or left untreated, after which the cells were cultured for another 24 h or 48 h for further analysis adopting Western blotting and cell death assay by FACS.
# [8] = tested on: caspase-9, caspase-8, caspase-3 and PARP; assay: Western blotting for cleavage of caspases and PARP; type: cell-based; settings: SiHa lysates
# Protocol: Whole cell lysates were prepared by lysing the cells in Laemmli sample buffer (Laemmli, 1970) and boiling the samples for 10 min after which proteins were separated in 12.5-15% SDS-PAGE. Western blotting was performed using antibodies against poly (ADP-ribose) polymerase (clone C-2-10; Sigma-Aldrich), Bid, Bax, caspase 8, caspase 9, caspase 3, SAPK/JNK, Phospho SAPK/JNK (Thr183/Tyr185), cIAP2 (Enzo Lifesciences), Akt, Phospho Akt(Ser473) (Cell Signalling Technology, Davers, Mass., USA), p21, Bcl-xL (Santa Cruz Biotechnology, Inc, Santa Cruz, Calif.), β-actin (clone AC-40; Sigma-Aldrich) and p53 (clone DO-1; BD Pharmingen). Horseradish peroxidase-conjugated secondary antibodies were obtained from Southern Biotechnology Associates (Birmingham, Ala.), Promega (Madison, Wis.) and Amersham Biosciences (Freiburg, Germany). The results were visualized using the ECL method (Amersham Biosciences) on X-ray film. The presented Western blot results are representative of at least three independent experiments.
# Caski cells = assay: Apoptosis analysis in Caski cells; type: cell-based; settings: HPV positive Caski cells (p53+), 40 μM AA, 48 h
# Protocol: as §2, §3
# SiHa cells [9] = assay: Mitochondrial depolarization by TMRM labeling; type: cell-based; settings: 20-40 μM AA, 8-48 h
# Protocol: Tetramethylrhodamine, methyl ester (TMRM, Invitrogen, Cergy Pontoise, France) was stored as 20 mM dimethylsulfoxide stock and diluted in medium before use. The cells were incubated in 20 nM tetramethylrhodamine for 10 min in 37° C. water bath. The cells were placed on ice and analyzed immediately by FACSCalibur flow cytometry.
# SiHa cells [10] = assay: Propidium iodide detection of permeabilized (necrotic) cells; type: cell-based; settings: AA doses greater than 40 μM
# Protocol: For detection of permeabilized (necrotic) cells, the cells were trypsinized and resuspended in 50 μg/ml Propidium Iodide (PI) (Sigma-Aldrich) in PBS for 10 minutes at room temperature. The samples were analyzed by flow cytometry.
# HeLa cells = assay: Apoptosis analysis in HeLa cells; type: cell-based; settings: HPV positive HeLa cells (p53+), 40 μM AA, 48 h
# Protocol: as §2, §3
compound,measurement,setting,value
Z-VAD.fmk [reference compound],effect on AA-induced caspase-3 activation,"SiHa cells [1]; SiHa, pre-incubation with 40 μM Z-VAD.fmk prior to 40 μM AA, data not shown",reversed caspase-3 activation and apoptotic cell morphology
"C=C1C(=O)O[C@H]2/C=C(\C)CC/C=C(\C(=O)O)CC/C=C(\C)CC[C@H]12 [AA, Anisomelic acid]","percentage of AA-induced apoptosis (caspase-3 activation, flow cytometry)","[2]; SiHa cells in the absence of p53 expression, 40 μM AA",did not observe any significant decrease
same,induction of p53 and p21 proteins by AA,"[2]; p53-shRNA SiHa cells, 40 μM & 20 μM AA respectively",abrogated
same,AA-induced cell cycle arrest,"[2]; p53-shRNA SiHa cells, 24 h after start of AA treatment",no longer accumulated at the G2/M phase
same,solubility in DMSO and hot ethanol,Solubility,dissolves
same,solubility in water or other aqueous solvents,Solubility,mostly insoluble
same,apoptosis induction,MDA-MB-231 cells,failed to induce effective apoptosis
same,apoptosis induction,MCF7 cells,failed to induce effective apoptosis
same,apoptosis induction,c33a cells [3],significantly less; also recorded: do not undergo apoptosis
same,killing,SiHa cells [4],≥ 95%
same,cell cycle distribution,SiHa cells [5]; 20 and 40 μM AA,accumulated at the G2/M phase
same,dose at which G2/M arrest occurred more effectively,SiHa cells [5],20 µM
same,cell death,[6],failed to induce cell death
same,time at which maximum percentage of apoptosis was achieved,SiHa cells [1]; SiHa cells,48 h
same,cells that contained activated caspase-3 as a measure of apoptosis,"SiHa cells [1]; SiHa, 40 μM AA, 48 h",marked activation of caspase-3
same,caspase-3 cleavage,"SiHa cells [1]; SiHa, AA doses greater than 40 μM",reduced caspase-3 cleavage dramatically
same,AA-induced apoptosis after E6 transfection,c33a cells [7]; c33a cells transfected with His-tag E6 vs mock,rescued c33a cells from apoptsis significantly
same,apoptosis induction,c33a cells [7]; c33a cells,undergo apoptosis
same,cleavage of caspase-3 and PARP,[8]; 20-40 μM AA,induced the cleavage of caspase-3 and poly-ADP-ribose polymerase (PARP)
same,cleavage of procaspase-9 into 35/37 kDa fragments,[8]; 20 and 40 μM AA,seen after 12 h incubation
same,cleavage of procaspase-8,[8]; AA treatment,observed abundantly only after 24 h
same,apoptosis induction,Caski cells,effectively induced apoptosis
same,mitochondrial membrane depolarization,SiHa cells [9],occured in a time-dependent manner
same,cell permeabilization by PI labeling (necrotic cell death),SiHa cells [10],could not detect increased cell permeabilization
same,apoptosis induction,HeLa cells,effectively induced apoptosis
